Test results taken from PubChem BioAssay (NCI).
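Dose response: 5 concentrations. Exposure: 48 h. Format: 96-well plates. Endpoint: linear interpolation; highest concentration if not reached. GI50 is the concentration that inhibits growth by half. At the TGI there is no net growth.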

Key:
Assay in all cases: NCI anticancer screen, dose series, 48 h
[1] = test system: SK-MEL-5 melanoma
[2] = test system: OVCAR-3 ovarian
[3] = test system: NCI-H23 lung
[4] = test system: HL-60(TB) leukemia
[5] = test system: M19-MEL melanoma
[6] = test system: HCT-15 colon
[7] = test system: K-562 leukemia
[8] = test system: XF 498 CNS
[9] = test system: MOLT-4 leukemia
[10] = test system: SK-MEL-2 melanoma
[11] = test system: TK-10 renal
[12] = test system: SNB-78 CNS
[13] = test system: DMS 273 small cell lung
[14] = test system: OVCAR-8 ovarian
[15] = test system: HCT-116 colon
[16] = test system: OVCAR-5 ovarian
[17] = test system: HOP-18 NSCLC
[18] = test system: HCC-2998 colon
[19] = test system: RPMI-8226 leukemia
[20] = test system: OVCAR-4 ovarian
[21] = test system: RXF 393 renal
[22] = test system: A549 NSCLC
[23] = test system: LXFL 529 NSCLC
[24] = test system: HOP-62 NSCLC
[25] = test system: SF-295 CNS
[26] = test system: DMS 114 small cell lung
[27] = test system: NCI-H522 lung
[28] = test system: CCRF-CEM leukemia
[29] = test system: SF-539 CNS
[30] = test system: SF-268 CNS
[31] = test system: NCI-H460 lung
[32] = test system: A498 renal
[33] = test system: UACC-62 melanoma
[34] = test system: EKVX NSCLC
[35] = test system: COLO 205 colon
[36] = test system: SNB-19 CNS
[37] = test system: SK-OV-3 ovarian
[38] = test system: SNB-75 CNS
[39] = test system: IGROV1 ovarian
[40] = test system: KM12 colon
[41] = test system: SN12C renal
[42] = test system: SW-620 colon
[43] = test system: 786-0 renal
[44] = test system: MALME-3M melanoma
[45] = test system: UACC-257 melanoma
[46] = test system: KM20L2 colon
[47] = test system: ACHN renal
[48] = test system: DLD-1 colon
[49] = test system: HT29 colon
[50] = test system: UO-31 renal
[51] = test system: U251 CNS
[52] = test system: LOX IMVI melanoma
[53] = test system: SK-MEL-28 melanoma
[54] = test system: NCI-H226 lung
[55] = test system: M14 melanoma
[56] = test system: CAKI-1 renal
[57] = test system: HOP-92 NSCLC
[58] = test system: SR leukemia

## COc1ccc(/C=C/C(=O)C(C)(C)CN2CCCCC2)cc1
[1]
  TGI: 35.5 µM
[2]
  TGI: 34.5 µM
[3]
  TGI: 54.7 µM
[4]
  TGI: 37.9 µM
[5]
  TGI: 33.8 µM
[6]
  TGI: 34.3 µM
[7]
  TGI: 65.2 µM
[8]
  TGI: 30.1 µM
[9]
  TGI: 47.9 µM
[10]
  TGI: 32.7 µM
[11]
  TGI: 53.4 µM
[12]
  TGI: 69 µM
[13]
  TGI: 41.6 µM
[14]
  TGI: 37.7 µM
[15]
  TGI: 30.8 µM
[16]
  TGI: > 100 µM
[17]
  TGI: 60.4 µM
[18]
  TGI: 33.7 µM
[19]
  TGI: 40.3 µM
[20]
  TGI: 22.1 µM
[21]
  TGI: 38 µM
[22]
  TGI: 74.3 µM
[23]
  TGI: 28.9 µM
[24]
  TGI: > 100 µM
[25]
  TGI: 97.5 µM
[26]
  TGI: 29.6 µM
[27]
  TGI: 30 µM
[28]
  TGI: 60.6 µM
[29]
  TGI: 38.1 µM
[30]
  TGI: 59.8 µM
[31]
  TGI: 43.3 µM
[32]
  TGI: 38.5 µM
[33]
  TGI: 65.5 µM
[34]
  TGI: 80.7 µM
[35]
  TGI: 30.6 µM
[36]
  TGI: > 100 µM
[37]
  TGI: 61.7 µM
[38]
  TGI: 47.1 µM
[39]
  TGI: 65.8 µM
[40]
  TGI: 55.7 µM
[41]
  TGI: 44.1 µM
[42]
  TGI: 14.2 µM
[43]
  TGI: 29.9 µM
[44]
  TGI: 79.8 µM
[45]
  TGI: 46.2 µM
[46]
  TGI: > 100 µM
[47]
  TGI: 60.1 µM
[48]
  TGI: 36.4 µM
[49]
  TGI: 33 µM
[50]
  TGI: 41.3 µM
[51]
  TGI: 30 µM
[52]
  TGI: 29.6 µM
[53]
  TGI: 65.9 µM
[54]
  TGI: 45.9 µM
[55]
  TGI: 32.2 µM

## N.N.N.N.O=NN1CCCCCC1(P(=O)([O-])[O-])P(=O)([O-])[O-].[Pt+4].[Pt+4]
[1]
  GI50: > 100 µM
  TGI: > 100 µM
[2]
  GI50: > 100 µM
  TGI: > 100 µM
[3]
  GI50: > 100 µM
  TGI: > 100 µM
[56]
  GI50: > 100 µM
  TGI: > 100 µM
[4]
  GI50: > 100 µM
  TGI: > 100 µM
[6]
  GI50: > 100 µM
  TGI: > 100 µM
[7]
  GI50: > 100 µM
  TGI: > 100 µM
[9]
  GI50: > 100 µM
  TGI: > 100 µM
[10]
  GI50: 79.6 µM
  TGI: > 100 µM
[11]
  GI50: > 100 µM
  TGI: > 100 µM
[13]
  GI50: > 100 µM
  TGI: > 100 µM
[14]
  GI50: > 100 µM
  TGI: > 100 µM
[15]
  GI50: > 100 µM
  TGI: > 100 µM
[16]
  GI50: > 100 µM
  TGI: > 100 µM
[17]
  GI50: > 100 µM
  TGI: > 100 µM
[18]
  GI50: > 100 µM
  TGI: > 100 µM
[19]
  GI50: > 100 µM
  TGI: > 100 µM
[20]
  GI50: > 100 µM
  TGI: > 100 µM
[21]
  GI50: > 100 µM
  TGI: > 100 µM
[22]
  GI50: > 100 µM
  TGI: > 100 µM
[23]
  GI50: > 100 µM
  TGI: > 100 µM
[24]
  GI50: > 100 µM
  TGI: > 100 µM
[25]
  GI50: > 100 µM
  TGI: > 100 µM
[27]
  GI50: > 100 µM
  TGI: > 100 µM
[28]
  GI50: > 100 µM
  TGI: > 100 µM
[29]
  GI50: > 100 µM
  TGI: > 100 µM
[30]
  GI50: > 100 µM
  TGI: > 100 µM
[57]
  GI50: > 100 µM
  TGI: > 100 µM
[31]
  GI50: > 100 µM
  TGI: > 100 µM
[32]
  GI50: > 100 µM
  TGI: > 100 µM
[33]
  GI50: > 100 µM
  TGI: > 100 µM
[34]
  GI50: > 100 µM
  TGI: > 100 µM
[35]
  GI50: > 100 µM
  TGI: > 100 µM
[36]
  GI50: > 100 µM
  TGI: > 100 µM
[37]
  GI50: > 100 µM
  TGI: > 100 µM
[38]
  GI50: > 100 µM
  TGI: > 100 µM
[39]
  GI50: > 100 µM
  TGI: > 100 µM
[40]
  GI50: > 100 µM
  TGI: > 100 µM
[41]
  GI50: > 100 µM
  TGI: > 100 µM
[42]
  GI50: > 100 µM
  TGI: > 100 µM
[43]
  GI50: > 100 µM
  TGI: > 100 µM
[44]
  GI50: > 100 µM
  TGI: > 100 µM
[45]
  GI50: > 100 µM
  TGI: > 100 µM
[46]
  GI50: > 100 µM
  TGI: > 100 µM
[47]
  GI50: > 100 µM
  TGI: > 100 µM
[48]
  GI50: > 100 µM
  TGI: > 100 µM
[49]
  GI50: > 100 µM
  TGI: > 100 µM
[50]
  GI50: > 100 µM
  TGI: > 100 µM
[51]
  GI50: > 100 µM
  TGI: > 100 µM
[52]
  GI50: > 100 µM
  TGI: > 100 µM
[53]
  GI50: > 100 µM
  TGI: > 100 µM
[54]
  GI50: > 100 µM
  TGI: > 100 µM
[55]
  GI50: > 100 µM
  TGI: > 100 µM

## O=C(Cc1nc2ccccc2s1)Nc1ccc(Cl)cc1
[1]
  TGI: > 100 µM
[2]
  TGI: > 100 µM
[3]
  TGI: > 100 µM
[56]
  TGI: > 100 µM
[4]
  TGI: > 100 µM
[5]
  TGI: > 100 µM
[7]
  TGI: > 100 µM
[8]
  TGI: > 100 µM
[9]
  TGI: > 100 µM
[10]
  TGI: > 100 µM
[11]
  TGI: > 100 µM
[12]
  TGI: > 100 µM
[13]
  TGI: > 100 µM
[14]
  TGI: > 100 µM
[15]
  TGI: > 100 µM
[16]
  TGI: > 100 µM
[18]
  TGI: > 100 µM
[20]
  TGI: > 100 µM
[21]
  TGI: > 100 µM
[22]
  TGI: > 100 µM
[58]
  TGI: > 100 µM
[23]
  TGI: > 100 µM
[24]
  TGI: > 100 µM
[25]
  TGI: > 100 µM
[27]
  TGI: > 100 µM
[28]
  TGI: > 100 µM
[29]
  TGI: > 100 µM
[30]
  TGI: > 100 µM
[31]
  TGI: > 100 µM
[32]
  TGI: > 100 µM
[33]
  TGI: > 100 µM
[34]
  TGI: > 100 µM
[35]
  TGI: > 100 µM
[36]
  TGI: > 100 µM
[37]
  TGI: > 100 µM
[38]
  TGI: > 100 µM
[39]
  TGI: > 100 µM
[40]
  TGI: > 100 µM
[41]
  TGI: > 100 µM
[42]
  TGI: > 100 µM
[43]
  TGI: > 100 µM
[44]
  TGI: > 100 µM
[45]
  TGI: > 100 µM
[46]
  TGI: > 100 µM
[47]
  TGI: > 100 µM
[48]
  TGI: > 100 µM
[49]
  TGI: > 100 µM
[50]
  TGI: > 100 µM
[51]
  TGI: > 100 µM
[52]
  TGI: > 100 µM
[53]
  TGI: > 100 µM
[54]
  TGI: > 100 µM
[55]
  TGI: > 100 µM
